Experimental data taken from patent publication US6410054B1, “Immediate release eplerenone compositions” (G. D. Searle & Co., priority 1998, dated 2002).

What was measured:
[1] = Single dose study: plasma pharmacokinetics of eplerenone, open lactone ring form, spironolactone
Experimental: The pharmacokinetics, safety and antialdosterone activity of single 10, 50, 100, 300 and 1000 mg oral doses of eplerenone were evaluated in a single-center, randomized, double-blind, placebo-controlled study.
The study employed seven parallel dose groups of eight healthy male humans.
The eplerenone capsules administered corresponded to the capsules (or combinations of the capsules) disclosed in Examples 4, 5, 7 and 8 above. The placebo was a conventional capsule containing lactose. […] The fludrocortisone used in the study consisted of commercially available fludrocortisone tablets (Florinef®, Squibb BV).
(§1) The subjects, who underwent a ten hour food fast prior to administration of the dose, received a single oral dose of one of the study medications together with about 180 mL of water at 0800 hours. […] Each dose of fludrocortisone was administered with 150 mL of water except for the 1.0 mg dose which was administered with 200 mL of water.
(§2) The plasma samples collected from subjects dosed with eplerenone were assayed for concentrations of eplerenone and the open lactone ring form of eplerenone. […] A subset of plasma samples was also assayed for testosterone levels. The urine collected was analyzed to determine concentrations and amounts of eplerenone and the open lactone ring form of eplerenone, the amount of sodium and potassium excreted, and the urinary log10 (sodium/potassium) ratio.

aldosterone receptors [2] = target: T1, aldosterone receptors (Homo sapiens, UniProt P08235); test: Single dose study: antialdosterone activity, urinary sodium and potassium after fludrocortisone; assay type: in vivo, humans; details: 50 mg dose
T1 construct: endogenous in cells; host or cells: healthy male human subjects (in vivo)
T1 sequence (P08235 1-984): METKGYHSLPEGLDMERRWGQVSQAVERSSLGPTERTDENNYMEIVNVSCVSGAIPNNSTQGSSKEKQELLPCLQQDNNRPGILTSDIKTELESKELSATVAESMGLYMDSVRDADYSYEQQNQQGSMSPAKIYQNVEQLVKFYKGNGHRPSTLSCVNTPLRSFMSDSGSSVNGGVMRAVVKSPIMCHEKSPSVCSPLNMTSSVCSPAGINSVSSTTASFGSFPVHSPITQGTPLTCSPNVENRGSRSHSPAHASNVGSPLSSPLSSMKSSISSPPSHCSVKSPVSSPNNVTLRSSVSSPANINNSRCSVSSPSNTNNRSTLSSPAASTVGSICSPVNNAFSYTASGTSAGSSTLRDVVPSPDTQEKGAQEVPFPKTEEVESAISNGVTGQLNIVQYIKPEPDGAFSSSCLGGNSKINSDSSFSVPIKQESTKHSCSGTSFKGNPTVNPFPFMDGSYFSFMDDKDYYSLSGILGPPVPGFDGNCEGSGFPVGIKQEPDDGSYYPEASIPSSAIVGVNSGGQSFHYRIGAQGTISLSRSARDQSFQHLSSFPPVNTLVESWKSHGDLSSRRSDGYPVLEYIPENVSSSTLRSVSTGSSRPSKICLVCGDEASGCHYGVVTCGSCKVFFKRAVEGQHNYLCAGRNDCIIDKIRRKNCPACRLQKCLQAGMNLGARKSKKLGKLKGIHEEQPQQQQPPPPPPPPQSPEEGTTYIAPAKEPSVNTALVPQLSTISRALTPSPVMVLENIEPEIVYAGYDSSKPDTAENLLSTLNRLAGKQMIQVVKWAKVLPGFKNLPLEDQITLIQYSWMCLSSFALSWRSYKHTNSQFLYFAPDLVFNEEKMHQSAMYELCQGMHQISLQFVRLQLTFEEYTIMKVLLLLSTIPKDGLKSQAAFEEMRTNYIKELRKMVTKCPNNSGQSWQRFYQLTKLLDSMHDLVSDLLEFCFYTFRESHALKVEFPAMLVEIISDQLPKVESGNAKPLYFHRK
Experimental: Antialdosterone activity was determined based on urine levels of sodium and potassium following repeated administration of fludrocortisone. Safety was determined on the basis of laboratory tests, vital signs, and the occurrence and types of adverse events.
as §1, §2

aldosterone receptors [3] = target: T1, aldosterone receptors; test: Multiple dose study: antialdosterone activity, urinary log10 (sodium/potassium); assay type: in vivo, humans; details: multiple dose administration
Experimental: Multiple oral dose tolerability and the pharmacokinetics of several dosages of eplerenone were evaluated in a double-blind, randomized, placebo-controlled, rising oral dose, sequential panel study of 40 healthy male subjects (five groups of eight subjects). The study medication was administered in three sequential dose panels, with each panel including eplerenone, spironolactone and placebo. […] The 100 mg and 200 mg dose capsules corresponded to those described in Examples 7 and 8, respectively. […] Antialdosterone activity was determined following a fludrocortisone challenge on Days 12-13.

blood pressure = test: Treatment of hypertension study: blood pressure; assay type: in vivo, humans; details: 50 mg BID; eight weeks
Experimental: (§3) The safety and efficacy of a range of doses of eplerenone in the treatment of hypertension relative to placebo were evaluated in a multi-center, randomized, double-blind, placebo-lead-in, parallel group study. […] The primary efficacy variable was the change in cuff diastolic blood pressure (ADBP; sitting) measured at trough plasma levels after eight weeks of double blind treatment. The secondary variables measured were the change in trough cuff systolic blood pressure (ΔSBP; sitting), change in 24 hour mean diastolic blood pressure (ΔDBP), and change in 24 hour mean systolic blood pressure (ΔSBP). The primary and secondary efficacy variables were analyzed to compare BID versus QD dosing regimens for each eplerenone dose group, and both eplerenone and spironolactone versus placebo. Changes in plasma renin and serum aldosterone after eight weeks of dosing were also analyzed as secondary measures of efficacy.
The specific pharmaceutical compositions of each eplerenone capsule are reported in Examples 5, 6, 7 and 8. The placebo was a conventional capsule containing lactose.

renin and aldosterone = test: Treatment of hypertension study: plasma renin and serum aldosterone; assay type: in vivo, humans
Experimental: as §3, with “study. […] Four hundred and seventeen patients were randomized to one of eight treatments: (i) placebo BID; […] (iv) eplerenone 400 mg QD; (v) eplerenone 25 mg BID;” for “study.”, “The primary and secondary efficacy variables were analyzed to compare BID versus QD dosing regimens for each eplerenone dose group, and both eplerenone and spironolactone versus placebo.” left out

CC(=O)S[C@@H]1CC2=CC(=O)CC[C@]2(C)[C@H]2CC[C@@]3(C)[C@@H](CC[C@@]34CCC(=O)O4)[C@H]12 [spironolactone, Spironolactone, reference compound]
Plasma Concentration Of Spironolactone ([1]; 50 mg single oral dose, -0.25 h (predose)): 0 ng/mL
concentration at 0.5 h ([1]; male, human, plasma, po, 50 mg): 10.5 ng/mL
concentration at 1 h ([1]; male, human, plasma, po, 50 mg): 23.6 ng/mL
concentration at 2 h ([1]; male, human, plasma, po, 50 mg): 14.4 ng/mL
concentration at 3 h ([1]; male, human, plasma, po, 50 mg): 14.3 ng/mL
concentration at 4 h ([1]; male, human, plasma, po, 50 mg): 4.8 ng/mL
concentration at 6 h ([1]; male, human, plasma, po, 50 mg): 0 ng/mL
concentration at 8 h ([1]; male, human, plasma, po, 50 mg): 0 ng/mL
concentration at 12 h ([1]; male, human, plasma, po, 50 mg): 0 ng/mL
concentration at 16 h ([1]; male, human, plasma, po, 50 mg): 0 ng/mL
concentration at 24 h ([1]; male, human, plasma, po, 50 mg): 0 ng/mL
concentration at 28 h ([1]; male, human, plasma, po, 50 mg): 0 ng/mL
concentration at 32 h ([1]; male, human, plasma, po, 50 mg): 0 ng/mL
concentration at 48 h ([1]; male, human, plasma, po, 50 mg): 0 ng/mL
concentration at 72 h ([1]; male, human, plasma, po, 50 mg): 0 ng/mL
concentration at 96 h ([1]; male, human, plasma, po, 50 mg): 0 ng/mL
Urinary Potassium Excretion (aldosterone receptors [2]; 0 to 2 hours): 7.5 mmol
Urinary Sodium Excretion (aldosterone receptors [2]; 0 to 2 hours): 4.1 mmol
Urinary Potassium Excretion (aldosterone receptors [2]; 2 to 4 hours): 11.8 mmol
Urinary Sodium Excretion (aldosterone receptors [2]; 2 to 4 hours): 8.5 mmol
Urinary Potassium Excretion (aldosterone receptors [2]; 4 to 6 hours): 10.2 mmol
Urinary Sodium Excretion (aldosterone receptors [2]; 4 to 6 hours): 9.4 mmol
Urinary Potassium Excretion (aldosterone receptors [2]; 6 to 8 hours): 13.3 mmol
Urinary Sodium Excretion (aldosterone receptors [2]; 6 to 8 hours): 14.8 mmol
Urinary Potassium Excretion (aldosterone receptors [2]; 8 to 10 hours): 17.9 mmol
Urinary Sodium Excretion (aldosterone receptors [2]; 8 to 10 hours): 13.4 mmol
Urinary Potassium Excretion (aldosterone receptors [2]; 10 to 12 hours): 12.5 mmol
Urinary Sodium Excretion (aldosterone receptors [2]; 10 to 12 hours): 8.4 mmol
Urinary Potassium Excretion (aldosterone receptors [2]; 12 to 14 hours): 20.6 mmol
Urinary Sodium Excretion (aldosterone receptors [2]; 12 to 14 hours): 11.5 mmol
Urinary Potassium Excretion (aldosterone receptors [2]; 14 to 16 hours): 11.4 mmol
Urinary Sodium Excretion (aldosterone receptors [2]; 14 to 16 hours): 5.9 mmol
Urinary Potassium Excretion (aldosterone receptors [2]; 16 to 24 hours): 27.9 mmol
Urinary Sodium Excretion (aldosterone receptors [2]; 16 to 24 hours): 11.8 mmol
Urinary Potassium Excretion (aldosterone receptors [2]; −9 to 0 hours): 26.9 mmol
Urinary Sodium Excretion (aldosterone receptors [2]; −9 to 0 hours): 29.1 mmol
urinary log10 (sodium/potassium) values (aldosterone receptors [3]): no sustained increase
24 hour mean ΔDBP (blood pressure): −8.9 mmHg
24 hour mean ΔSBP (blood pressure): −15.7 mmHg
Primary Efficacy Variable: ΔDBP at trough (sitting) (blood pressure): −9.5 mmHg
ΔSBP at trough (sitting) (blood pressure): −17.6 mmHg
Plasma Renin Active Mean Change From Baseline (renin and aldosterone; 50 mg BID): 13.3 mU/L
Serum Aldosterone Mean Change From Baseline (renin and aldosterone; 50 mg BID): 19.2 ng/dL
aldosterone compared to placebo (renin and aldosterone; eight weeks of dosing): increases
total and active renin levels (renin and aldosterone; eight weeks of dosing): increases
